“Also recorded” adds a separate entry of the source.
Tests used:
[1] = tested on: thrombus in FeCl3-injured mesenteric arteries; assay: Mouse ferric chloride arterial injury (thrombosis) model; assay type: in vivo; details: bolus, same tPA dose (50 ng)
Description: A previously described model was used with minor modifications (16). In brief, male C57BL/6 mice (3-4 weeks old) were anesthetized with 2.5% tribromoethanol (0.15 ml/10 g) and injected with fluorescently labeled platelets (calceinRed/Orange, ˜1×10^9 platelets/kg). An incision was made through the abdominal wall to expose the mesentery and arterioles (˜100 μm in diameter) were visualized using a Zeiss Axiovert 135-inverted microscope (objectives: 10× and 32×, Carl Zeiss Microlmaging, Inc.) and recorded on videotape. Whatman filter paper saturated with FeCl3 (10%) solution was applied topically for 5 min, which caused denudation of the endothelium. […] Following this bolus injection, the vessels were monitored until full occlusion occurred (blood flow stopped) and lasted for more than 10 seconds. The shear rate was calculated using an optical Doppler velocity meter (Microcirculation Research Institute, Texas A&M College of Medicine, College Station, Tex.) (17). […]

[2] = tested on: fibrin clots in pulmonary arteries; assay: Ex vivo mouse pulmonary embolism model (lung ventilation-perfusion)
Description: (§1) Fibrin clots were formed by adding CaCl2 (20 mM) and human α-thrombin (1 units/ml final concentrations, Enzyme Research Laboratories, IN) to human fibrinogen (5 mg/ml, Enzyme Research Laboratories, IN), as previously described (23, 31). This solution was immediately added drop-wise to a solution of canola oil with Span-80 (0.05%). The emulsion was mixed at 350 rpm for 4 hr and centrifuged (500 g, 5 min), followed by repeated washing in ethanol and water. The diameter of the resulting fibrin beads was determined by optical microscopy to be ˜250 μm. By adjusting the mixing speed in the described protocol, fibrin beads of smaller defined sizes were produced.
6-8 week-old C57BL/6 male mice (Jackson Laboratory, Bar Harbor, Me.) were weighed and anesthetized with Avertin (200 mg/kg IP). The trachea was incised via surgical tracheotomy, and cannulated with a blunted 22G stainless steel needle tip. The lungs were subsequently ventilated at a rate of 60 breaths/min, with a Peak Inspiratory Pressure (Pip) of 10 cm H2O and a Positive End Expiratory Pressure (Peep) of 3 cmH2O with compressed air using a mouse ventilator (VCM-R, Hugo Sachs Elektroniks, Germany). Ex vivo ventilation and perfusion of the mouse lung was performed using an IL1 ex vivo mouse lung ventilation-perfusion system (Harvard Apparatus, Natick, Mass.), (32). Following initiation of mechanical ventilation, the chest was opened via thoracotomy, and heparin (100 IU) was injected into the right ventricle. […] A suture was placed around the pulmonary artery and aorta. Cannulae made from polyethylene tubing (PE90 (0.86 mm ID, 1.7 mm OD)) were placed in the pulmonary artery (PA) and left atrium (LA), and lungs were perfused with RPMI-1640 with 4% Bovine Albumin (PROBUMIN™ Reagent Grade, Billerica, Mass.) and 0.7 g NaCl/500 ml via a roller pump (ISM 834C, Ismatec SA, Switzerland) set at a constant flow rate of 0.5 ml/min in a recirculating system with a system volume of 6 ml. Perfusate and lung temperatures were maintained at 37° C. by housing the entire ex-vivo ventilation perfusion system inside a standard cell incubator without CO2 (Forma Scientific, Ohio). Humidity was maintained in the range […]. Pulmonary arterial and left atrial pressures and airway flow and pressures were recorded with dedicated Type 379 vascular pressure and DLP2.5 flow and MPX Type 399/2airway pressure transducers and TAM-A amplifiers (Hugo Sachs Elektroniks, Germany). Vascular pressures were zeroed at the mid lung level prior to each experiment and recorded using Polyview16© software (Grass Technologies, West Warwick, R.I.). Prior to injection of experimental fibrin clots (prepared as above), the measured pressures were allowed to stabilize and remain stable for a period of more than 10 minutes. A solution of fibrin clots suspended in perfusion medium was infused at a flow rate of 0.1 ml/min and mixed with the regular perfusion line entering the pulmonary artery. The fibrin clot suspension was infused until the pulmonary artery pressure increased to ˜three-fold higher than the baseline. The system was then allowed to equilibrate and remain stable for at least 10 minutes. Next, tPA-coated SA-NTs or free soluble tPA was added to the main perfusion line and circulated through the perfusion system. As in the microfluidic device experiments, when tPA was perfused, plasminogen was added to obtain a final concentration of 2.2 μM. Pulmonary artery and vein pressures were acquired continuously during the perfusion period. […]

[3] = target: T1, fibrin clots (Homo sapiens, UniProt P02671+P02675+P02679); assay: Microfluidic model of vascular embolism (fibrin clot lysis); assay type: biochemical; details: 50 ng/ml tPA, same flow conditions
T1 construct: purchased Enzyme Research Laboratories, IN (fibrinogen, α-thrombin); Cell Sciences, MA (plasminogen)
T1 sequence (P02671 36-629 limits assumed): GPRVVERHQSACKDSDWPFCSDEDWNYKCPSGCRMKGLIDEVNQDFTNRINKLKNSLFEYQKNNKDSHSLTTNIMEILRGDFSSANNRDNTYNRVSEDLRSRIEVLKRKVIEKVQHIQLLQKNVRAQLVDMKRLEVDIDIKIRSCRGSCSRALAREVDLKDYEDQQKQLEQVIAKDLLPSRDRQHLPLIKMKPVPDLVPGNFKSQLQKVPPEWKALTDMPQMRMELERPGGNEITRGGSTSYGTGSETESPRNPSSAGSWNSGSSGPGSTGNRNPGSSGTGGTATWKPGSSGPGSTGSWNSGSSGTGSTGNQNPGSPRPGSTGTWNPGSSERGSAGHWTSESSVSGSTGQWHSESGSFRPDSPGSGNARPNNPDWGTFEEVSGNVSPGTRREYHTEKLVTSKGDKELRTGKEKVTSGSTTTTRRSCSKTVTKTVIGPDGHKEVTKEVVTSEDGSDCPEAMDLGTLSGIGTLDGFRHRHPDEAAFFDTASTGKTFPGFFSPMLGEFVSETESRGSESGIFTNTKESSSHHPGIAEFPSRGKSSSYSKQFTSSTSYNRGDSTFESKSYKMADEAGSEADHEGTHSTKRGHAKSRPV
T1 sequence (P02675 45-491 limits assumed): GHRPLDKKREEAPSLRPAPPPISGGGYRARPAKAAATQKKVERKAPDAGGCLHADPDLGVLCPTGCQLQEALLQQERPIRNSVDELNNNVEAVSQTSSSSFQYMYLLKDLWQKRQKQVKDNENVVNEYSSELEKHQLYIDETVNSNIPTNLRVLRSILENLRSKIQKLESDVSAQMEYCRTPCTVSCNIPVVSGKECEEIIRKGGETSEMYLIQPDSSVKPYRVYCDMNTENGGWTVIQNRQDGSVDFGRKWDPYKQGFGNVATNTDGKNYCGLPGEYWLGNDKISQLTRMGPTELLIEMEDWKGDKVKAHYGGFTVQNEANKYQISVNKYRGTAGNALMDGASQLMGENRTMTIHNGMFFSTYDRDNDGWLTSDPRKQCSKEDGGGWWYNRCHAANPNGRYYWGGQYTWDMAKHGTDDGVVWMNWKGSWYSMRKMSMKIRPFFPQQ
T1 sequence (P02679 27-437 isoform P02679-2 limits assumed): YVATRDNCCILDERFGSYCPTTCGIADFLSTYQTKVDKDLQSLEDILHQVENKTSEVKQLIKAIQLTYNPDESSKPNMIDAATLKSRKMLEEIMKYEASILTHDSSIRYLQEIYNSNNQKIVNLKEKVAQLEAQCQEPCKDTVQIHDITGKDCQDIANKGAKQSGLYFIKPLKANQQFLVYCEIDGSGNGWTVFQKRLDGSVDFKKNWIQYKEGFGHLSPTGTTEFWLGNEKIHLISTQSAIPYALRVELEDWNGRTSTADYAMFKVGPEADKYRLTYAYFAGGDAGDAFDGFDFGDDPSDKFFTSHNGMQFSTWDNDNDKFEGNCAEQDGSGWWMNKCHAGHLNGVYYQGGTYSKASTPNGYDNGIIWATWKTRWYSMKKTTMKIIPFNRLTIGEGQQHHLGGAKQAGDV
Excerpt: Microfluidic devices with a narrowed cross-sectional area (80 μm high×0.5 mm wide×200 mm long) were fabricated using soft lithography as described above. Fibrin clots formed as described below that were infused into the main channel lodged and obstructed the flow in these smaller channels. A solution of tPA or tPA coated SA-NTs was infused at a flow rate corresponding to a shear stress of 10 dyne/cm2 in an unobstructed channel. Prior to infusion of the tPA solutions, bovine plasminogen (Cell Sciences, MA) was added to a final concentration of 2.2 μM (30). During the fibrinolysis process, the fibrin clot sizes were monitored in real-time (images acquired every 30 sec) on an inverted Zeiss microscope.
as §1

- reduction in clot size [3]: < 5%
Substance: tissue plasminogen activator [free tPA]
- delay of time to full vascular occlusion [1]: did not produce any significant delay; also recorded: neither addition of free tPA, pre-dissociated tPA-NPs, nor heat-fused tPA-NP microaggregates (that do not dissociate in high shear) produced any detectable effects
- effect on pulmonary artery pressure ([2]; 50 ng/ml): did not reduce pulmonary artery pressure
- effect on pulmonary artery pressure ([2]; 50 ng/ml, listed as soluble tPA): failed to produce any significant response
- effect on pulmonary artery pressure ([2]; 500 ng/ml (ten times higher dose)): did not reduce pulmonary artery pressure
- effect on pulmonary artery pressure ([2]; 500 ng/ml (ten times higher dose), listed as soluble tPA): failed to produce any significant response
- effect on pulmonary artery pressure ([2]; 5,000 ng/ml (100-fold higher dose)): produced similar effects

Source: patent US20150147276A1, “NANOTHERAPEUTICS FOR DRUG TARGETING” (PRESIDENT AND FELLOWS OF HARVARD COLLEGE, priority 2012, published 2015)
